Test results reported in publication PMC7558026, “Exploring and applying the substrate promiscuity of a C-glycosyltransferase in the chemo-enzymatic synthesis of bioactive C-glycosides” (Nature Communications, 2020).
Values joined by “and” are separate entries in the source; they are usually repeats but may differ in a detail not shown here. Equal entries are not always repeated.

Key:
AbCGT [1] = target: T1, AbCGT (Aloe vera, UniProt A0A7G9P699); assay: Glycosyltransferase activity assay, purified AbCGT (wild type) with aglycon acceptors and UDP-Glc; type: biochemical, Aloe barbadensis; conditions: fig. 2b, purified AbCGT, redesigned substrates; Reaction-1 to -3
E. coli-AbCGT [2] = assay: Glycosylation by whole-cell biocatalyst E. coli-AbCGT; type: cell-based; conditions: fig. 2c, 30 °C, M9 medium, 12 h, 0.25 mM acceptor; Reaction-1 to -3
Protocol: The induced cells of E. coli-AbCGT were harvested by centrifugation at 3000 × g for 5 min at 4 °C and washed with ddH2O. Pellets were resuspended by M9 minimal medium containing 2% glucose to appropriate cell density (OD600 = 3.0). Prepared whole-cell biocatalyst of E. coli-AbCGT (500 μL) was then added to 2-mL tubes containing various acceptors at a concentration of 0.25 mM. The mixture was incubated at 30 °C for 12 h with shaking (200 rpm). The reactions were analyzed using GT activity assays as described above. For quantification, three parallel assays were routinely carried out.

SGLT2 = target: T2, SGLT2 (Homo sapiens, UniProt P31639); assay: 1-NBDG uptake in HEK293 cells stably expressing SGLT2; type: cell-based; conditions: triplicate; for inhibition at 10 µM: HEK293, compound at 10 μM, read-out: SGLT2 inhibitory rates; for SGLT2 inhibitory rates: compound at 10 μM, 10 µM
T2 construct: Human full-length SGLT2 cDNA (NM_003041.3) was synthesized; expressed in transfected cells; host or cells: HEK293, retroviral transduction with pMSCVpuro-SGLT2, puromycin selected
T2 sequence (P31639 1-672): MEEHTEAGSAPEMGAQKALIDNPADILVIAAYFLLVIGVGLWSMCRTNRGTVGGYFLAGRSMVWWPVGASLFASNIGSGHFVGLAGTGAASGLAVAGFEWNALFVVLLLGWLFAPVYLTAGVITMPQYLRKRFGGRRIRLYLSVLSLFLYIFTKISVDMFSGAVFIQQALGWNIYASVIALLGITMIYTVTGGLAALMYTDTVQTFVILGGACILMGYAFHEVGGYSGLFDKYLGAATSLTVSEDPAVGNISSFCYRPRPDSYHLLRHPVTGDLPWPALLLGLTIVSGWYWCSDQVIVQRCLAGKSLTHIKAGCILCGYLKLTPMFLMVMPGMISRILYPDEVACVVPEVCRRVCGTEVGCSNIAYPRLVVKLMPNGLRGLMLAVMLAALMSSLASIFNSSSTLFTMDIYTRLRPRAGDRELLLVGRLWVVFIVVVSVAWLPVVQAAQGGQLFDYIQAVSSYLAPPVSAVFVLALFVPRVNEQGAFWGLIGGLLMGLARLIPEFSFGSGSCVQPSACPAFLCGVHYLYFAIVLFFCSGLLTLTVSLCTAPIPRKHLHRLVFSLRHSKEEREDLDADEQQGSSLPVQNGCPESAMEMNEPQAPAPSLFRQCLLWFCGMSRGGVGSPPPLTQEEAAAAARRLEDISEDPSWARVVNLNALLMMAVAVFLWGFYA

E. coli-AbCGT [3] = assay: Optimization of cell density and substrate concentration in whole-cell biocatalysis; type: cell-based; conditions: replicates 1-3; for Conversion rate of 46: substrate 150 mg L^‒1; for conversion rate: OD600 = 13.0
Protocol: To study the optimal cell density, the reaction was performed in various cell densities with OD600 values in the range of 1.0−15.0 and a substrate concentration of 150 mg L^‒1. […] For quantification, three parallel assays were routinely carried out.

SGLT1 = target: T3, SGLT1 (Homo sapiens, UniProt P13866); assay: 1-NBDG uptake in HEK293 cells stably expressing SGLT1; type: cell-based; conditions: HEK293, compound at 10 μM; triplicate; read-out: SGLT1 inhibitory rates
T3 construct: The full-length SGLT1 cDNA was obtained by PCR with forward primer; expressed in transfected cells
T3 sequence (P13866 1-664): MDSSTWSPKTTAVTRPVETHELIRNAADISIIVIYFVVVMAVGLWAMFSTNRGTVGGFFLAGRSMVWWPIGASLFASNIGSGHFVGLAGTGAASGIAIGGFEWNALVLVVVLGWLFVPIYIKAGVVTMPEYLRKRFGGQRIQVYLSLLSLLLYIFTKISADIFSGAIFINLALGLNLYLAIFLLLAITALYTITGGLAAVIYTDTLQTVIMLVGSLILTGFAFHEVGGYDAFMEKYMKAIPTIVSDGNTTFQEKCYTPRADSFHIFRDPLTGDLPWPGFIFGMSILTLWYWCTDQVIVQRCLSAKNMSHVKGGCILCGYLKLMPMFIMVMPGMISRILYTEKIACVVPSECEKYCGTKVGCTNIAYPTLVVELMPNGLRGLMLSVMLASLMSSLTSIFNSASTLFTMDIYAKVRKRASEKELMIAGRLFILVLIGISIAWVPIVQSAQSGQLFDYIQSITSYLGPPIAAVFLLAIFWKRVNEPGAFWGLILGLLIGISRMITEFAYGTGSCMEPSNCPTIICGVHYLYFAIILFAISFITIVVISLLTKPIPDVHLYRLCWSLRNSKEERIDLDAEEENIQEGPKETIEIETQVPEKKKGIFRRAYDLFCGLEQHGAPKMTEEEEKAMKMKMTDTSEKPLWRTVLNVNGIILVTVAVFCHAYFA

AbCGT [4] = target: T1, AbCGT; assay: Sugar donor promiscuity of AbCGT with phloretin (17) as acceptor; type: biochemical, Aloe barbadensis; conditions: sugar donor with phloretin (17) as acceptor; Reaction-1 to -3
Protocol: The reaction mixture contained 0.5 mM sugar donors (1.0 mM for di-glycosylation), 0.25 mM aglycons, 50 mM Tris-HCl (pH 7.4), and 50‒100 μg of purified AbCGT in a final volume of 100 μL. Due to the instability of some acceptors in the buffer of pH 11.0, the reactions were performed under the physiological conditions (pH 7.4, 30 °C) to compare the catalytic activities of AbGT27 with different substrates under the same conditions. The reactions were performed at 30 °C for up to 12 h and terminated by the addition of 200 μL of ice-cold methanol. Subsequently, samples were centrifuged at 15,000 × g for 30 min to collect the supernatant, and aliquots were analyzed by HPLC-UV/ESIMS. HPLC analysis was performed on a Shiseido CAPCELL PAK C18 MG III column (250 mm × 4.6 mm I.D., 5 μm, Shiseido Co., Ltd., Japan) at a flow rate of 1 mL min^‒1. The mobile phase was a gradient elution of solvents A (0.1% formic acid aqueous solution) and B (methanol). The gradient programs were used for the analysis of the reactions (Supplementary Table 6). The conversion rates of the enzyme reactions were calculated from peak areas of glycosylated products and substrates as analyzed by HPLC. To facilitate inferential statistical analysis, three parallel assays were routinely performed; the means ± SD from triplicate analyses are reported here.

T1 sequence (A0A7G9P699 entry or part of it): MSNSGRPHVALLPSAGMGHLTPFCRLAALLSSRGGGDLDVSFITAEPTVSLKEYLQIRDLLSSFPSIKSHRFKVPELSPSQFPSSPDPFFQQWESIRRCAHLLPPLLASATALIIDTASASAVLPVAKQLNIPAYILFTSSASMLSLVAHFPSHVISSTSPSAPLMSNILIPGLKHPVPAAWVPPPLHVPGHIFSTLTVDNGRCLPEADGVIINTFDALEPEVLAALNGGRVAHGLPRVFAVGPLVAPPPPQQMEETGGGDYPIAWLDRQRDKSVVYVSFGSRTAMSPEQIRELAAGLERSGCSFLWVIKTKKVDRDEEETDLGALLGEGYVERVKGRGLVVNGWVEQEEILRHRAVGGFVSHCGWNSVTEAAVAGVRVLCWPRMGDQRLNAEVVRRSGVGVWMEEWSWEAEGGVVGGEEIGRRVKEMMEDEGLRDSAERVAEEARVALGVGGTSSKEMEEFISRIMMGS

Compound	conversion rates, Purified Enzyme (AbCGT [1]) [%]	conversion rates, Whole cells (E. coli-AbCGT [2])	inhibition at 10 µM (SGLT2) [%]	other results
CCc1c(O)cc(O)cc1O [Compound 30]	100	0%		
Oc1cc(O)c(CC2CC2)c(O)c1 [Compound 34]	100	11.3% and 11.9% and 15.8%		
Oc1cc(O)c(CC2CCC2)c(O)c1 [Compound 35]	100	41.1% and 39.5% and 30.5%		
Oc1cc(O)c(CC2CCCC2)c(O)c1 [Compound 36]	100	53.8% and 69.1% and 57.1%		
Oc1cc(O)c(CC2CCCCC2)c(O)c1 [Compound 37]	100	100%		
Oc1cc(O)c(Cc2ccccc2)c(O)c1 [Compound 38, 1-benzylbenzene-2,4,6-triol]	100	44.3% and 46.1% and 53.7%	4.2	
Oc1cc(O)c(CCc2ccccc2)c(O)c1 [Compound 39, 1-phenethylbenzene-2,4,6-triol]	100	7.2% and 13.4% and 9.4%	0.2	
Oc1cc(O)c(CCCCc2ccccc2)c(O)c1 [Compound 40]	100	100%		
Oc1cc(O)c(Cc2ccsc2)c(O)c1 [Compound 42]	100	73% and 84.5% and 79.6%	2.7	
Oc1cc(O)c(CCc2c[nH]c3ccccc23)c(O)c1 [Compound 43]	100	87.2% and 96% and 92.6%	12.9	
Cc1ccc(Cc2c(O)cc(O)cc2O)cc1 [Compound 46]	100	89% and 80.2% and 82.3%	10.8	Conversion rate of 46 (E. coli-AbCGT [3]; OD600nm 1.0): 2% and 4% (2×); Conversion rate of 46 (E. coli-AbCGT [3]; OD600nm 3.0): 13% and 11% and 15%; Conversion rate of 46 (E. coli-AbCGT [3]; OD600nm 5.0): 22% (2×) and 19%; Conversion rate of 46 (E. coli-AbCGT [3]; OD600nm 7.0): 26% and 28% and 32%; Conversion rate of 46 (E. coli-AbCGT [3]; OD600nm 9.0): 33% (2×) and 29%; Conversion rate of 46 (E. coli-AbCGT [3]; OD600nm 11.0): 38% and 34% and 33%; Conversion rate of 46 (E. coli-AbCGT [3]; OD600nm 13.0): 38%; Conversion rate of 46 (E. coli-AbCGT [3]; OD600nm 15.0): 43% and 35% (2×); conversion rate (E. coli-AbCGT [3]; concentration of 46 57.5 mg/L): 100%; conversion rate (E. coli-AbCGT [3]; concentration of 46 115 mg/L): 100%; conversion rate (E. coli-AbCGT [3]; concentration of 46 172.5 mg/L): 100%; conversion rate (E. coli-AbCGT [3]; concentration of 46 230 mg/L): 100%; conversion rate (E. coli-AbCGT [3]; concentration of 46 287.5 mg/L): 89% and 92% and 93%; conversion rate (E. coli-AbCGT [3]; concentration of 46 345 mg/L): 27.5% and 20% and 29.8%; conversion rate (E. coli-AbCGT [3]; concentration of 46 460 mg/L): 13.6% and 13.9% and 14%; conversion rate (E. coli-AbCGT [3]; concentration of 46 575 mg/L): 8.8% and 8.5% and 8%
CCCCc1ccc(Cc2c(O)cc(O)cc2O)cc1 [Compound 47]	100	2.7% and 3.2% and 3.1%	0.2	
CCCCc1ccc(Cc2c(O)cc(O)c(C3OC(CO)C(O)C(O)C3O)c2O)cc1 (stereo not shown) [Compound 47a]			> 96	SGLT2 inhibitory rates (SGLT2): 100%; inhibition at 10 µM (SGLT1): 17.1%
Oc1cc(O)c(Cc2ccc(F)cc2)c(O)c1 [Compound 48]	100	86% and 92.2% and 88.8%	0.2	
Oc1cc(O)c(Cc2ccc(Cl)cc2)c(O)c1 [Compound 49]	100	0.8% and 0.9%	0.2	
OCC1OC(c2c(O)cc(O)c(Cc3ccc(Cl)cc3)c2O)C(O)C(O)C1O (stereo not shown) [Compound 49a]			> 96	SGLT2 inhibitory rates (SGLT2): 98.5%; inhibition at 10 µM (SGLT1): 34.7%
Oc1cc(O)c(Cc2ccc(-c3ccccc3)cc2)c(O)c1 [Compound 50]	100	0%	0.2	
OCC1OC(c2c(O)cc(O)c(Cc3ccc(-c4ccccc4)cc3)c2O)C(O)C(O)C1O (stereo not shown) [Compound 50a]			> 96	SGLT2 inhibitory rates (SGLT2): 96.3%; inhibition at 10 µM (SGLT1): 27.1%
Oc1ccc(CCc2c(O)cc(O)cc2O)cc1 [Compound 51]	100	87.9% and 92.2% and 95.8%	3.3	
Oc1cc(O)c(CCc2ccc3c(c2)CCO3)c(O)c1 [Compound 52]	100	84.1% and 72.7% and 80.3%	0.8	
Oc1cc(O)c(CCc2ccc(F)cc2)c(O)c1 [Compound 53]	100	66.8% and 61% and 58.3%	0.2	
Oc1cc(O)c(CCc2ccc(Cl)cc2)c(O)c1 [Compound 54]	100	39.8% and 44.7% and 47.4%	0.2	
O=C(O)C1OC(OP(=O)(O)OP(=O)(O)OCC2OC(n3ccc(=O)[nH]c3=O)C(O)C2O)C(O)C(O)C1O [e, UDP-α-D-glucuronic acid]				conversion rates, O,N,S-glycosylation (AbCGT [4]): 0%; conversion rates, di-C-glycosylation (AbCGT [4]): 0%; conversion rates, mono-C-glycosylation (AbCGT [4]): 4.8% and 5.3%
